Measured values from article PMC11556372 (Journal of medicinal chemistry, 2023).
Like-named read-outs stand apart in the source and are kept apart here.

Tests used:
[1] = assay type: in vitro ADME; conditions: 2 μM, pH 7.4
in vitro [2] = assay type: in vitro ADME; conditions: human, Caco-2, Caco-2 efflux ratio
Caco-2 cells = assay: in vitro; assay type: in vitro ADME; conditions: Caco-2
[3] = Thermodynamic solubility in pH 7 buffered solution; assay type: physicochemical
[4] = assay type: physicochemical; conditions: 24 h, 50 μg/mL
[5] = assay type: in vitro ADME; conditions: 2 μM, pH 7.4; remark: listed apart in the source
[6] = assay type: in vitro ADME; conditions: 2 μM, pH 7.4; remark: listed apart in the source
[7] = assay type: in vitro ADME; conditions: 2 μM, pH 7.4; remark: listed apart in the source
[8] = tested on: three human carboxyesterases; assay: in vitro; assay type: in vitro ADME; conditions: pH 7.4
[9] = In vivo pharmacokinetics, rat; conditions: po, 6 mg/kg
SARS-CoV-2 WA1 = assay: SARS-CoV-2 nucleoprotein ELISA in A549-hACE2-TMPRSS2 cells, WA1; assay type: cell-based
[10] = in vivo
SARS-CoV-2 [11] = assay: AGM SARS-CoV-2 antiviral efficacy study
adenosine deaminase = target: T1, adenosine deaminase (Homo sapiens, UniProt P00813); assay: Metabolism by adenosine deaminase in vitro
T1 sequence (P00813 1-363): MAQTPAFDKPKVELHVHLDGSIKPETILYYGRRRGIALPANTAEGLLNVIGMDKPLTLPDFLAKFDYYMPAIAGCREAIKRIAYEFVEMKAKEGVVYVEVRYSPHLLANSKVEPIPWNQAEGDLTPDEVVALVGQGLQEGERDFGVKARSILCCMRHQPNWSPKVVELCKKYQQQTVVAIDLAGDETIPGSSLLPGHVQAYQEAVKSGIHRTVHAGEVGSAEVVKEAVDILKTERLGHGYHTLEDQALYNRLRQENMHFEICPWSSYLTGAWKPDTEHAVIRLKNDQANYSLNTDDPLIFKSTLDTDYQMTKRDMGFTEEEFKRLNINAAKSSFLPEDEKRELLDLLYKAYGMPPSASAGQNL

SARS-CoV-2 [12] = conditions: read-out: in vitro SARS-CoV-2 antiviral EC50; Vero E6 cells and primary lung cultures; cited from earlier work
in vivo = conditions: nonhuman primates, iv
in vitro [13] = conditions: human, microsomes
[14] = cited from earlier work
SARS-CoV-2 [15] = conditions: cited from earlier work
SARS-CoV-2-Nluc = assay: in vitro; conditions: human
[16] = read-out: mean Cmax of plasma 1; AGM, 1 iv 10 mg/kg day 1 dose; cited from earlier work
[17] = cited from earlier work; remark: listed apart in the source
[18] = assay type: in vitro ADME; conditions: 2 μM, pH 7.4; remark: listed apart in the source
[19] = assay type: in vitro ADME; conditions: 2 μM, pH 7.4; remark: listed apart in the source
[20] = assay type: in vitro ADME; conditions: 2 μM, pH 7.4; remark: listed apart in the source
[21] = assay type: in vitro ADME; conditions: 2 μM, pH 7.4; remark: listed apart in the source
[22] = Severe acute respiratory syndrome coronavirus 2, A549-hACE2-TMPRSS2, read-out: EC50 ± SD, WA1 (n = 2), reference run above Omicron BA.2.12.1, BA.4, BA.5

CC(=O)OC[C@H]1O[C@@](C#N)(c2ccc3c(N)ncnn23)[C@H](O)[C@@H]1O [compound 5, ((2R,3S,4R,5R)-5-(4-Aminopyrrolo[2,1-f][1,2,4]triazin-7-yl)-5-cyano-3,4-dihydroxytetrahydrofuran-2-yl)methyl Acetate]
GI S9 stability, rat [1]: < 2 min

CC(C)C(=O)OC[C@H]1O[C@@](C#N)(c2ccc3c(N)ncnn23)[C@H](O)[C@@H]1O [compound 3, ((2R,3S,4R,5R)-5-(4-Aminopyrrolo[2,1-f][1,2,4]triazin-7-yl)-5-cyano-3,4-dihydroxytetrahydrofuran-2-yl)methyl Isobutyrate]
efflux ratio at 2 h (in vitro [2]): < 3
fold improved forward permeability over parent 2 (Caco-2 cells): ~ 10 fold
fold improved pH 7 solubility over 2 [3]: > 10 fold
fold improved pH 7 solubility over 6 [3]: > 100 fold
solution stability, pH 2 [4]: ≥94%
solution stability, pH 7 [4]: ≥96%
GI S9 stability, rat [1]: <2/<2/<2/<2 min
GI S9 stability, dog [5]: <2/<2/<2/<2 min
GI S9 stability, cynomolgus monkey [6]: <2/<2/<2/<2 min
GI S9 stability, human [7]: <2/<2/<2/<2 min
half-life at 2 μM [8]: < 4.3 min
AUC0–24 of 3 [9]: BLQ
EC50 (SARS-CoV-2 WA1; [22]): 1570 ± 210 nM
EC50 (SARS-CoV-2 WA1; Severe acute respiratory syndrome coronavirus 2, A549-hACE2-TMPRSS2, read-out: EC50 ± SD, WA1 (n = 2), reference run above Omicron BA.4.6, BF.5): 3960 ± 290 nM
simulated human Cave [10]: ≈ 4.6 μM
SARS-CoV-2 infectious and RNA loads in throat swabs (SARS-CoV-2 [11]; 1, 2, and 6 dpi, both dose groups): significant reductions
infectious viral loads in the BALF (SARS-CoV-2 [11]; 60 or 120 mg/kg oral once daily, throughout infection): statistically significant decreases
genomic RNA loads in BALF (SARS-CoV-2 [11]; 60 or 120 mg/kg, exception 60 mg/kg at day 1 post-infection): significantly reduced at nearly all study time points assessed
infectious virus in throat and nasal swabs (SARS-CoV-2 [11]; after day 4 post-infection, either dose group): no detectable infectious virus
viral RNA levels in terminal respiratory tissues (SARS-CoV-2 [11]; study day 6, both doses): significant reductions of viral RNA levels in 5 out of the 6 respiratory tissues evaluated
metabolism by adenosine deaminase (adenosine deaminase): weak substrates or inhibitors

N#C[C@@]1(c2ccc3c(N)ncnn23)O[C@H](CO)[C@@H](O)[C@H]1O [compound 2, GS-441524]
EC50 (SARS-CoV-2 WA1; [22]): 7360 ± 3460 nM
EC50 (SARS-CoV-2 [12]): 1000 to 2000 nM
half-life (in vivo): 156 to 162 min
half-life (in vitro [13]): > 480 min
metabolism by adenosine deaminase (adenosine deaminase): weak substrates or inhibitors

CC(C)C(=O)OC[C@H]1O[C@@](C#N)(c2ccc3c(N)ncnn23)[C@H](OC(=O)C(C)C)[C@@H]1OC(=O)C(C)C [compound 6]
solution stability, pH 2 [4]: ≥96%
solution stability, pH 7 [4]: ≥98%
GI S9 stability, rat [1]: <2/<2/<2/<2 min
GI S9 stability, dog [5]: <2/<2/<2/<2 min
GI S9 stability, cynomolgus monkey [6]: <2/<2/<2/<2 min
GI S9 stability, human [7]: <2/<2/<2/<2 min

[N-]=[N+]=N[C@]1(CO)O[C@@H](n2ccc(N)nc2=O)[C@H](O)[C@@H]1O [R1479]
estimated oral bioavailability ([14]; human, in vivo, po): 6–18%

CCC(CC)COC(=O)[C@H](C)N[P@](=O)(OC[C@H]1O[C@@](C#N)(c2ccc3c(N)ncnn23)[C@H](O)[C@@H]1O)Oc1ccccc1 [compound 1, Remdesivir]
EC50 (SARS-CoV-2 WA1; [22]): 160 ± 0.6 nM
fold change ± SD from WA1 (SARS-CoV-2 WA1; WA1 (n = 2), reference run above Omicron BA.2): 1.0
fold change ± SD from WA1 (SARS-CoV-2 WA1; WA1 (n = 2), reference run above Omicron BA.2.12.1, BA.4, BA.5): 1.0
fold change ± SD from WA1 (SARS-CoV-2 WA1; WA1 (n = 2), reference run above Omicron BA.2.75): 1.0
fold change ± SD from WA1 (SARS-CoV-2 WA1; WA1 (n = 2), reference run above Omicron BA.4.6, BF.5): 1.0
fold change ± SD from WA1 (SARS-CoV-2 WA1; WA1 (n = 2), reference run above Omicron XBB, BQ.1.1): 1.0
fold change ± SD from WA1 (SARS-CoV-2 WA1; WA1 (n = 3), reference run above Delta): 1.0
fold change ± SD from WA1 (SARS-CoV-2 WA1; WA1 (n = 7), reference run above Omicron BA.1): 1.0
reduction in hospitalizations (SARS-CoV-2 [15]; high-risk nonhospitalized patients (PINETREE), 3-day iv): 87%
effectiveness in reducing hospitalization (SARS-CoV-2 [15]; outpatient high-risk patients, 5-day oral Paxlovid, 3-day iv 1): ≥ 87%
shortening of hospitalization duration (SARS-CoV-2 [15]; patients hospitalized with COVID-19 (ACTT-1), iv): 5 days
selectivity ratio (SARS-CoV-2-Nluc): ≥ 300
Cmax [16]: 12.6 µM
half-life ([17]; NHPs): 24 to 48 min
oral bioavailability of the intact prodrug ([17]; nonhuman primates): < 1%
AUC0–24h of 1 ([14]; 100 mg maintenance dose in humans): 2.6 µM·h

CC(=O)OC[C@H]1O[C@@](C#N)(c2ccc3c(N)ncnn23)[C@H](OC(C)=O)[C@@H]1OC(C)=O [compound 7]
liver S9 stability, rat [18]: <2/<2/<2/<2 min
liver S9 stability, dog [19]: <2/<2/<2/<2 min
liver S9 stability, cynomolgus monkey [20]: <2/<2/<2/<2 min
liver S9 stability, human [21]: <2/<2/<2/<2 min
